Source: patent US20240217983A1, “GPR119 AGONISTS” (Kallyope, Inc., priority 2021, published 2024)
pEC50: −log10 of the molar value. Counter-ions that a name gives are not always drawn.

Target: T1, human GPR119 (hGPR119) (Homo sapiens, UniProt Q8TDV5)
T1 construct: expressed in transfected cells
T1 sequence (Q8TDV5 1-335): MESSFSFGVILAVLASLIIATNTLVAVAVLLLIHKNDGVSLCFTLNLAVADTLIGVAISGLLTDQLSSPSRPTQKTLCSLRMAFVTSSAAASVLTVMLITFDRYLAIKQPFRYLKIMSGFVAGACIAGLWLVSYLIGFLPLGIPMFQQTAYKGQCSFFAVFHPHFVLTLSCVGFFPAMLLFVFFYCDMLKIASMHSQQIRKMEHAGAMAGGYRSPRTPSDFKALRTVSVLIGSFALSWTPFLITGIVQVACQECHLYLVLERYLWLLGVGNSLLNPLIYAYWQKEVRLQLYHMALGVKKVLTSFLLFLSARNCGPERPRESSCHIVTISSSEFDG
Assay: cAMP accumulation assay (Cisbio cAMP Gs dynamic HTRF kit) in CHO-K1 cells stably expressing human GPR119
Assay type: cell-based
Conditions: 4-parameter fit; for Emax: 1 h, % activity normalized to Max and Min controls; for pEC50: 60 minutes at 37° C.
Protocol: CHO-K1 cells stably expressing human GPR119 (hGPR119) were prepared by transfection of a GPR119-carrying plasmid using Lipofectamine 2000 (following manufacturer instructions). A stable cell line was established using the limiting dilution method with geneticine selection. Assay-ready frozen (ARF) cells were prepared and used throughout the study.
The assay was performed in a 384-well plate format using the cAMP Gs dynamic assay kit from Cisbio. ARF cells expressing hGPR119 were thawed, washed and then resuspended in cAMP stimulation buffer at a cell density of 1.1×10^6 cells/mL. Cells were plated at a density of ˜10,000 cells/well (9 μL/well). Dose response curves for the tested compounds were prepared in a cAMP stimulation buffer, containing 0.1% Tween 80 at 4 fold the final concentration. The compounds were then transferred to the cell plates using BRAVO (3 μL/well) and the plates were incubated for 60 minutes at 37° C./5% CO2. Detection buffer (10 μL, prepared as described in the cAMP Gs dynamic kit) were added to each well, and the plates were incubated at ambient temperature for 1 hr.
RT-FRET was measured using a ClarioSTAR plate reader, calculating the ratio between emissions at 665 nm and 620 nm (HTRF ratio). The HTRF ratio for positive (Max) and negative (Min) controls were used to normalize HTRF data and generate values for % activity. EC50 and Max activity values were determined using a standard 4-parameter fit.

Row | Emax [%] | pEC50 | Structure (SMILES)
1 | 100 to 130 | ≥ 7.00 | O=C(Cc1ccc(OCCCC2CCN(c3ncc(Cl)cn3)CC2)cc1F)N1CCC2(CC1)CCN2C(=O)CCCCS(=O)(=O)O [Example 21, 5-(7-(2-(4-(3-(1-(5-chloropyrimidin-2-yl)piperidin-4-yl)propoxy)-2-fluorophenyl)acetyl)-1,7-diazaspiro[3.5]nonan-1-yl)-5-oxopentane-1-sulfonic acid]
2 | 100 to 130 | 6.00 to 7.00 | O=C(Cc1ccc(OCCCC2CCN(c3ncc(Cl)cn3)CC2)cc1F)N1CCC2(CC1)CN(C(=O)CCCCS(=O)(=O)O)C2 [Example 22, 5-(7-(2-(4-(3-(1-(5-chloropyrimidin-2-yl)piperidin-4-yl)propoxy)-2-fluorophenyl)acetyl)-2,7-diazaspiro[3.5]nonan-2-yl)-5-oxopentane-1-sulfonic acid]
3 | 100 to 130 | ≥ 7.00 | O=C(Cc1ccc(OCCCC2CCN(c3ncc(Cl)cn3)CC2)cc1F)N1CC2(CN(C[C@H](O)[C@@H](O)[C@H](O)[C@H](O)CO)C2)C1 [Example 26, 2-(4-(3-(1-(5-chloropyrimidin-2-yl)piperidin-4-yl)propoxy)-2-fluorophenyl)-1-(6-((2S,3R,4R,5R)-2,3,4,5,6-pentahydroxyhexyl)-2,6-diazaspiro[3.3]heptan-2-yl)ethan-1-one]
4 | 100 to 130 | ≥ 7.00 | O=C(Cc1ccc(OCCCC2CCN(c3ncc(Cl)cn3)CC2)cc1F)N1CCC2(CN(C[C@H](O)[C@@H](O)[C@H](O)[C@H](O)CO)C2)C1 [Example 29, 2-(4-(3-(1-(5-chloropyrimidin-2-yl)piperidin-4-yl)propoxy)-2-fluorophenyl)-1-(2-((2S,3R,4R,5R)-2,3,4,5,6-pentahydroxyhexyl)-2,6-diazaspiro[3.4]octan-6-yl)ethan-1-one]
5 | 100 to 130 | ≥ 7.00 | O=C(Cc1ccc(OCCCC2CCN(c3ncc(Cl)cn3)CC2)cc1F)N1CCC2(CCN2C[C@H](O)[C@@H](O)[C@H](O)[C@H](O)CO)C1 (stereo partly drawn) [Example 31, 2-(4-(3-(1-(5-chloropyrimidin-2-yl)piperidin-4-yl)propoxy)-2-fluorophenyl)-1-(1-((2S,3R,4R,5R)-2,3,4,5,6-pentahydroxyhexyl)-1,6-diazaspiro[3.4]octan-6-yl)ethan-1-one]
6 | 100 to 130 | ≥ 7.00 | O=C(Cc1ccc(OCCCC2CCN(c3ncc(Cl)cn3)CC2)cc1F)N1CC2(CCN2C[C@H](O)[C@H](O)[C@H](O)CO)C1 [Example 32, 2-(4-(3-(1-(5-chloropyrimidin-2-yl)piperidin-4-yl)propoxy)-2-fluorophenyl)-1-(1-((2S,3S,4R)-2,3,4,5-tetrahydroxypentyl)-1,6-diazaspiro[3.3]heptan-6-yl)ethan-1-one]
7 | 100 to 130 | ≥ 7.00 | O=C(Cc1ccc(OCCCC2CCN(c3ncc(Cl)cn3)CC2)cc1F)N1CC2(CCN2C[C@H](O)[C@@H](O)[C@H](O)[C@H](O)CO)C1 [Example 33, 2-(4-(3-(1-(5-chloropyrimidin-2-yl)piperidin-4-yl)propoxy)-2-fluorophenyl)-1-(1-((2S,3R,4R,5R)-2,3,4,5,6-pentahydroxyhexyl)-1,6-diazaspiro[3.3]heptan-6-yl)ethan-1-one]

Further lines, the molecule ahead of its results:

Row | Structure (SMILES) | Emax [%] | pEC50
8 | O=C(CCCCS(=O)(=O)O)N1CCN(C(=O)Cc2ccc(OCCCC3CCN(c4ncc(Cl)cn4)CC3)cc2F)C2CC21 (centres unmarked) [Example 17, 5-(5-(2-(4-(3-(1-(5-chloropyrimidin-2-yl)piperidin-4-yl)propoxy)-2-fluorophenyl)acetyl)-2,5-diazabicyclo[4.1.0]heptan-2-yl)-5-oxopentane-1-sulfonic acid] | 100 to 130 | 6.00 to 7.00
9 | O=C(Cc1ccc(OCCCC2CCN(c3ncc(Cl)cn3)CC2)cc1F)N1CC2(CCCN2C(=O)CCCCS(=O)(=O)O)C1 [Example 18, 5-(2-(2-(4-(3-(1-(5-chloropyrimidin-2-yl)piperidin-4-yl)propoxy)-2-fluorophenyl)acetyl)-2,5-diazaspiro[3.4]octan-5-yl)-5-oxopentane-1-sulfonic acid] | 100 to 130 | ≥ 7.00
10 | O=C(Cc1ccc(OCCCC2CCN(c3ncc(Cl)cn3)CC2)cc1F)N1CC2(C1)N(C(=O)CCCCS(=O)(=O)O)CC2(F)F [Example 19, 5-(6-(2-(4-(3-(1-(5-chloropyrimidin-2-yl)piperidin-4-yl)propoxy)-2-fluorophenyl)acetyl)-3,3-difluoro-1,6-diazaspiro[3.3]heptan-1-yl)-5-oxopentane-1-sulfonic acid] | 100 to 130 | ≥ 7.00
11 | O=C(Cc1ccc(OCCCC2CCN(c3ncc(Cl)cn3)CC2)cc1F)N1C[C@H]2CCN(C(=O)CCCCS(=O)(=O)O)[C@H]2C1 [Example 20, 5-((3aR,6aR)-5-(2-(4-(3-(1-(5-chloropyrimidin-2-yl)piperidin-4-yl)propoxy)-2-fluorophenyl)acetyl)hexahydropyrrolo[3,4-b]pyrrol-1(2H)-yl)-5-oxopentane-1-sulfonic acid] | 100 to 130 | ≥ 7.00
12 | O=C(CCCCS(=O)(=O)O)N1CCN(C(=O)Cc2ccc(OCCCC3CCN(c4ncc(Cl)cn4)CC3)cc2F)CC1 [Example 23, 5-(4-(2-(4-(3-(1-(5-chloropyrimidin-2-yl)piperidin-4-yl)propoxy)-2-fluorophenyl)acetyl)piperazin-1-yl)-5-oxopentane-1-sulfonic acid] | 100 to 130 | ≥ 7.00
13 | O=C(CCCCS(=O)(=O)O)N1CCOC2(CCN(C(=O)Cc3ccc(OCCCC4CCN(c5ncc(Cl)cn5)CC4)cc3F)C2)C1 (centres unmarked) [Example 24, 5-(2-(2-(4-(3-(1-(5-chloropyrimidin-2-yl)piperidin-4-yl)propoxy)-2-fluorophenyl)acetyl)-6-oxa-2,9-diazaspiro[4.5]decan-9-yl)-5-oxopentane-1-sulfonic acid] | 100 to 130 | ≥ 7.00
14 | O=C(Cc1ccc(OCCCC2CCN(c3ncc(Cl)cn3)CC2)cc1F)N1CC2(CN(C[C@H](O)[C@H](O)[C@H](O)CO)C2)C1 [Example 25, 2-(4-(3-(1-(5-chloropyrimidin-2-yl)piperidin-4-yl)propoxy)-2-fluorophenyl)-1-(6-((2S,3S,4R)-2,3,4,5-tetrahydroxypentyl)-2,6-diazaspiro[3.3]heptan-2-yl)ethan-1-one formate] | 50 to 100 | < 5.00
15 | O=C(Cc1ccc(OCCCC2CCN(c3ncc(Cl)cn3)CC2)cc1F)N1CCN(C[C@H](O)[C@@H](O)[C@H](O)[C@H](O)CO)CC1 [Example 27, 2-(4-(3-(1-(5-chloropyrimidin-2-yl)piperidin-4-yl)propoxy)-2-fluorophenyl)-1-(4-((2S,3R,4R,5R)-2,3,4,5,6-pentahydroxyhexyl)piperazin-1-yl)ethan-1-one] | 100 to 130 | ≥ 7.00
16 | O=C(Cc1ccc(OCCCC2CCN(c3ncc(Cl)cn3)CC2)cc1F)N1CCC2(CN(C[C@H](O)[C@H](O)[C@H](O)CO)C2)C1 [Example 28, 2-(4-(3-(1-(5-chloropyrimidin-2-yl)piperidin-4-yl)propoxy)-2-fluorophenyl)-1-(2-((2S,3S,4R)-2,3,4,5-tetrahydroxypentyl)-2,6-diazaspiro[3.4]octan-6-yl)ethan-1-one] | 100 to 130 | ≥ 7.00
17 | O=C(Cc1ccc(OCCCC2CCN(c3ncc(Cl)cn3)CC2)cc1F)N1CCC2(CCN2C[C@H](O)[C@H](O)[C@H](O)CO)C1 (stereo partly drawn) [Example 30, 2-(4-(3-(1-(5-chloropyrimidin-2-yl)piperidin-4-yl)propoxy)-2-fluorophenyl)-1-(1-((2S,3S,4R)-2,3,4,5-tetrahydroxypentyl)-1,6-diazaspiro[3.4]octan-6-yl)ethan-1-one] | 100 to 130 | ≥ 7.00
18 | O=C(Cc1ccc(OCCCC2CCN(c3ncc(Cl)cn3)CC2)cc1F)N1C[C@@H]2CCN(C[C@H](O)[C@H](O)[C@H](O)CO)[C@@H]2C1 [Example 34, 2-(4-(3-(1-(5-chloropyrimidin-2-yl)piperidin-4-yl)propoxy)-2-fluorophenyl)-1-((3aS,6aS)-1-((2S,3S,4R)-2,3,4,5-tetrahydroxypentyl)hexahydropyrrolo[3,4-b]pyrrol-5(1H)-yl)ethan-1-one] | ≥ 130 | ≥ 7.00
19 | O=C(Cc1ccc(OCCCC2CCN(c3ncc(Cl)cn3)CC2)cc1F)N1C[C@@H]2CCN(C[C@H](O)[C@@H](O)[C@H](O)[C@H](O)CO)[C@@H]2C1 [Example 35, 2-(4-(3-(1-(5-chloropyrimidin-2-yl)piperidin-4-yl)propoxy)-2-fluorophenyl)-1-((3aS,6aS)-1-((2S,3R,4R,5R)-2,3,4,5,6-pentahydroxyhexyl)hexahydropyrrolo[3,4-b]pyrrol-5(1H)-yl)ethan-1-one] | 100 to 130 | ≥ 7.00
